Results reported in patent US20220282271A1, “HERBICIDE RESISTANT PLANTS AND METHODS OF MAKING AND USING” (OFFICE OF INNOVATION ADVANCEMENT AND COMMERCIALIZATION, priority 2019, published 2022).

Legend:
Sida spinosa = assay: Weed control screen: prickly sida; assay type: in vivo; conditions: 1.0 lb ai/a, applied approximately 3 weeks after emergence, relative to non-treated
Experimental: (§1) Herbicides were applied at a spray volume of 280 L/ha with no adjuvant added to any herbicide mixture. Weed control was rated on a 0 to 100 percent phytoxicity scale with 0 being no plant injury/phytotoxicity and 100 being complete plant dessication. Twenty-one weeds were evaluated for response to herbicides (Table 3). The weeds selected were a mixture of weeds common in agronomic and horticultural crops. Herbicide was applied to all species approximately 3 weeks after emergence. Plant phytotoxicity rated as percent control relative to the non-treated.

Crotalaria spectabilis = assay: Weed control screen: showy crotalaria; assay type: in vivo; conditions: 1.0 lb ai/a, applied approximately 3 weeks after emergence, relative to non-treated
Experimental: as §1

Solanum carolinense = assay: Weed control screen: Carolina horsenettle; assay type: in vivo; conditions: 1.0 lb ai/a, applied approximately 3 weeks after emergence, relative to non-treated
Experimental: as §1

Sorghum halapense = assay: Weed control screen: johnsongrass; assay type: in vivo; conditions: 1.0 lb ai/a, applied approximately 3 weeks after emergence, relative to non-treated
Experimental: as §1

Sesbania exaltata = assay: Weed control screen: hemp sesbania; assay type: in vivo; conditions: 1.0 lb ai/a, applied approximately 3 weeks after emergence, relative to non-treated
Experimental: as §1

Conyza candensis = assay: Weed control screen: glyphosate-resistant horseweed; assay type: in vivo; conditions: 1.0 lb ai/a, applied approximately 3 weeks after emergence, relative to non-treated
Experimental: as §1

Murdannia nudiflora = assay: Weed control screen: doveweed; assay type: in vivo; conditions: 1.0 lb ai/a, applied approximately 3 weeks after emergence, relative to non-treated
Experimental: as §1

[1] = tested on: Twenty-one weeds common in agronomic and horticultural crops; assay: Weed control screen: summary over the twenty-one weeds; assay type: in vivo
Experimental: as §1

Eleusine indica = assay: Weed control screen: goosegrass; assay type: in vivo; conditions: 1.0 lb ai/a, applied approximately 3 weeks after emergence, relative to non-treated
Experimental: as §1

[2] = tested on: Eleusine indica biotypes (S, R1, R2); assay: Herbicide rate screening assay (greenhouse, foliar-applied, visual injury); assay type: in vivo; conditions: for I50, estimated rate required to reduce Eleusine indica biotype by 50% (Visual Control/Injury) / I90, estimated rate required to reduce Eleusine indica biotype by 90% (Visual Control/Injury): injury scores 14 days after treatment; for Parameter estimate a of sigmoidal model y = a/(1 + exp(−(x − x0)/b)) for percent injury / Parameter estimate b of sigmoidal model y = a/(1 + exp(−(x − x0)/b)) for percent injury / Parameter estimate x0 of sigmoidal model y = a/(1 + exp(−(x − x0)/b)) for percent injury: x = log-transformed herbicide rate (kg/ha), 14 DAT; for Control at labelled rate application: oxadiazon 2.24 kg/ha
Excerpt: Three E. indica biotypes from different locations were used in this study. The R1 biotype was collected in Country Club of Virginia, Richmond, Va., and the R2 biotype was from River Bend Golf, New Bern, N.C. These two biotypes were previous confirmed resistant to preemergence application of oxadiazon, but have not been screened to other PPO inhibitors. The S biotype was collected from the Alabama Agricultural Experiment Station, Plant Breeding Unit, Tallassee, Ala., which was confirmed susceptible to PPO inhibitors. Seeds of the mature plants were harvested, air dried and stored in the 4° C. freezer until planted in the greenhouse.
Greenhouse conditions were 30±3° C. at day/night temperature and ˜70% average relative humidity. The E. indica seeds were placed on the soil surface and lightly covered with sand in 28 cm*20 cm flats and watered as needed daily to ensure germination. Two weeks after emergence, seedlings were separated and transplanted to in individual 10-cm pots (volumes=0.5 L). Pots were filled with surface horizon of Marvyn sandy loam (fine-loamy, kaolinitic, thermic Typic Kanhapludults) soil with pH 6.4 and 1.2% organic matter. The plants were irrigated three times daily for 2 min with overhead irrigation and fertilized once at one week after transplanting at approximately 50 kg N ha^−1 with Scott's Miracle-Gro All-Purpose fertilizer (The Scotts Miracle-Gro Co. Marysville, Ohio). Plants were 5-10 cm in height with 3-5 tillers in size at the time of herbicide treatment.
Herbicide treatments were foliar-applied at 280 L/ha using an enclosed spray chamber with a single 8002E nozzle (TeeJet Spray Systems Co, Wheaton, Ill.) at 32 PSI. Four herbicides were selected for the experiment: oxadiazon (Ronstar FLO, Bayer Environmental Sci., Research Triangle Park, N.C.), sulfentrazone (Dismiss, FMC Corporation, Philadelphia, Pa.), flumioxazin (Sureguard, Valent Corp., Walnut Creek, Calif.) and lactofen (Cobra, Valent Corp., Walnut Creek, Calif.). All the herbicides are from different herbicide chemical families of PPO inhibitors: oxadiazoles, triazolinone, N-phenylphthalimide and diphenyl ether, respectively. Herbicides were applied at 7 different rates based on each herbicide label rate: oxadiazon ranging from 0.14 to 8.96 kg/ha, sulfentrazone from 0.07 to 4.50 kg/ha, flumioxazin from 0.08 to 5.70 kg/ha, and lactofen from 0.029 to 1.75 kg/ha. A non-treated control (0 kg/ha) was included. 192 plants of each biotype were tested and experiments were conducted as completely random design, three replications for two runs.
The visual injury rating scores per plant at 14 days after treatment (DAT) were recorded, where the visual injury rating scores were based on a 0 to 100 scale, which 0 is equated to no phytotoxicity and 100 is equated to complete control. Data subjected to ANOVA analysis at a significance level of P<0.05 using the PROC GLM procedure of SAS 9.4 (SAS Institute Inc., Cary, N.C.). All the herbicide rates were log transformed to make equal spacing between the herbicide treatments in order to facilitate regression analysis. The non-treated control was transformed to equal spacing based on the log rates of each herbicide, respectively. Data were fitted to a sigmoidal model using SigmaPlot 10.2 (Systat Software Inc., London, UK) using a sigmoidal function (Equation 1).
y=a/(1+e^(−((x−x0)/b))) (1)
In this fit sigmoidal model, where y represents E. indica visual damage relative to non-treated control (%), x represents the log-transformed herbicide rates (kg/ha), three parameters (a, b, x0) represents the y intercept.

[3] = biological target: recombinant variant E. indica PPO1 A212T (Eleusine indica, UniProt A0A6G5XNV7, A212T); assay: In vitro PPO enzyme activity inhibition, variant PPO1 A212T; assay type: biochemical
Sequence of recombinant variant E. indica PPO1 A212T (A0A6G5XNV7 entry or part of it A212T): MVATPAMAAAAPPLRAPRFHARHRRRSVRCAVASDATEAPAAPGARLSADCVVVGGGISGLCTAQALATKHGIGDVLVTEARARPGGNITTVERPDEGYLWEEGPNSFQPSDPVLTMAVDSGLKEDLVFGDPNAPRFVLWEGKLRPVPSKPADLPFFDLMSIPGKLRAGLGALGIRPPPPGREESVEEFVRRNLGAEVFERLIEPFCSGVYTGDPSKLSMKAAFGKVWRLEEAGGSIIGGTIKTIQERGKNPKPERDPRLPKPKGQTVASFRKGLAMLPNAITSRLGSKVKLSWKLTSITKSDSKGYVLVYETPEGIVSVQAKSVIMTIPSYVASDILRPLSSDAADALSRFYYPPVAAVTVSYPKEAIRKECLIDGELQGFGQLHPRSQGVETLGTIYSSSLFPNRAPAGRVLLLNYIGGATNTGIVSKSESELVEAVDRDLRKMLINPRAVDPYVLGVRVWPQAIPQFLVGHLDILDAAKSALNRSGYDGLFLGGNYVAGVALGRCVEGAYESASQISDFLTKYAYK
Excerpt: Effects of A212T substitution were studied using the E. indica backbone. The wild-type E. indica PPO1 and the E. indica PPO1 A212T variants were synthesized de novo and subcloned into pRSetB plasmid (Invitrogen, Carlsbad, Calif.). The complete description of expression and purification of E. indica PPO1 and E. indica PPO1 A212T variant proteins were referenced to the method described for PPO2 by Rangani et al. (2019, Frontiers in Plant Sci., 10:568). Six PPO inhibitors, belonging to five different chemical families, were evaluated on the PPO enzyme activity at a concentrations ranging from 5.00×10^−5M to 5.12×10^−12M. Oxadiazon, sulfentrazone, saflufenacil and lactofen are from the class of oxadiazole, triazolinone, pyrimidinedione, and diphenyl ether, respectively. Flumioxazin and trifludimoxazin are from the same chemical family, N-phenylphthalimide. […] The assay was replicated twice.

Ipomoea lacunosa = assay: Weed control screen: pitted morningglory; assay type: in vivo; conditions: 1.0 lb ai/a, applied approximately 3 weeks after emergence, relative to non-treated
Experimental: as §1

Compound: CC(C)Oc1cc(-n2nc(C(C)(C)C)oc2=O)c(Cl)cc1Cl [Oxadiazon, oxadiazon]
- Percent control (0 to 100) (Sida spinosa): 90%
- Percent control (0 to 100) (Crotalaria spectabilis): 99%
- Percent control (0 to 100) (Solanum carolinense): 60%
- Percent control (0 to 100) (Sorghum halapense): 100%
- Percent control (0 to 100) (Sesbania exaltata): 100%
- Percent control (0 to 100) (Conyza candensis): 30%
- Percent control (0 to 100) (Murdannia nudiflora): 0%
- Number of the 21 weeds evaluated controlled at a level greater than or equal to 90% ([1]; 1.0 lb ai/a): 13 weeds
- Number of the 21 weeds controlled greater than or equivalent to glyphosate ([1]; 1.0 lb ai/a each): 18 weeds
- Percent control (0 to 100) (Eleusine indica): 100%
- Increased resistance of oxadiazon resistant biotypes than the susceptible biotype ([2]; R1 and R2 vs S biotype, post-emergence applied): up to 20 fold
- I50, estimated rate required to reduce Eleusine indica biotype by 50% (Visual Control/Injury) ([2]; R1 biotype): 8.15 kg ha^−1
- I90, estimated rate required to reduce Eleusine indica biotype by 90% (Visual Control/Injury) ([2]; R1 biotype): 14.60 kg ha^−1
- Parameter estimate a of sigmoidal model y = a/(1 + exp(−(x − x0)/b)) for percent injury ([2]; R1 biotype): 9925.40
- Parameter estimate b of sigmoidal model y = a/(1 + exp(−(x − x0)/b)) for percent injury ([2]; R1 biotype): 0.53
- Parameter estimate x0 of sigmoidal model y = a/(1 + exp(−(x − x0)/b)) for percent injury ([2]; R1 biotype): 3.75
- I50, estimated rate required to reduce Eleusine indica biotype by 50% (Visual Control/Injury) ([2]; R2 biotype): 8.88 kg ha^−1
- I90, estimated rate required to reduce Eleusine indica biotype by 90% (Visual Control/Injury) ([2]; R2 biotype): 18.29 kg ha^−1
- Parameter estimate a of sigmoidal model y = a/(1 + exp(−(x − x0)/b)) for percent injury ([2]; R2 biotype): 64371.40
- Parameter estimate b of sigmoidal model y = a/(1 + exp(−(x − x0)/b)) for percent injury ([2]; R2 biotype): 0.43
- Parameter estimate x0 of sigmoidal model y = a/(1 + exp(−(x − x0)/b)) for percent injury ([2]; R2 biotype): 3.99
- I50, estimated rate required to reduce Eleusine indica biotype by 50% (Visual Control/Injury) ([2]; S biotype): 0.32 kg ha^−1
- I90, estimated rate required to reduce Eleusine indica biotype by 90% (Visual Control/Injury) ([2]; S biotype): 1.56 kg ha^−1
- Control at labelled rate application ([2]; S biotype): > 80%
- Parameter estimate a of sigmoidal model y = a/(1 + exp(−(x − x0)/b)) for percent injury ([2]; S biotype): 91.25
- Parameter estimate b of sigmoidal model y = a/(1 + exp(−(x − x0)/b)) for percent injury ([2]; S biotype): 0.25
- Parameter estimate x0 of sigmoidal model y = a/(1 + exp(−(x − x0)/b)) for percent injury ([2]; S biotype): −0.54
- Control at labelled rate application ([2]; resistant biotypes (R1 and R2), flumioxazin 0.357 kg/ha, sulfentrazone 0.28 kg/ha, lactofen 0.22 kg/ha): < 20%
- Control at labelled rate application ([2]; resistant biotypes (R1 and R2), flumioxazin 0.357 kg/ha, sulfentrazone 0.28 kg/ha, lactofen 0.22 kg/ha, listed as oxadiazon): less than 10%
- IC50 [3]: > 10 µM
- inhibition at 10 µM ([3]; read-out: Variant E. indica PPO1 A212T % inhibition): 16%
- Percent control (0 to 100) (Ipomoea lacunosa): 100%
